Measured values as given in article PMC11853379, “Glioblastoma Cell Migration, Invasion and Vasculogenic Mimicry Downmodulated by Novel uPAcyclin Derivatives” (Cells, 2025).
Positions of bridges follow the written chain, without caps; N, C: chain ends. Residues, ends and D or L forms follow the SMILES beside them.

What was measured:
[1] = tested on: GBM; details: surgical resection, radiotherapy and concomitant Temozolomide; extended from 12.1 months; cited from earlier work
Description: Glioblastoma (GBM) is the most common malignant primary brain tumor, characterized by micro-vascular proliferation, cellular necrosis and the pronounced invasiveness of surrounding parenchima with high recurrency and a high mortality rate. […] In particular, surgery still represents an important pillar of treat ...

[2] = tested on: U87-MG cells; format: cell-based, human; details: for inhibitory activity on cell migration, comparison (in words): U87-MG migration toward 5% FBS
Description: The migration and invasion assays were performed with Boyden chambers, according to De Vincenzo et al., using 11 × 10^4 U87-MG and U251-MG glioblastoma cells/sample pre-treated for 40 min at 37 °C with the indicated effectors and then allowed to migrate for 3 h or to invade for 5 h at 37 °C toward 5% FBS in DMEM/0.1% BSA. The migrated or invaded cells were reported as a percentage of basal random migration or invasion and analyzed as reported in the Statistical Analyses section. The migration and invasion experiments were conducted in triplicate.
(§1) Figure 1 Binding of Ala peptides to U87-MG cells and effect of uPAcyclin and Ala peptides on U87-MG cellular migration. (A) A total of 2 × 10^6 U87-MG cells were pre-incubated for 30 min at 4 °C with increasing concentrations of unlabeled uPAcyclin and Ala peptides and then exposed to 50 nM of FITC-uPAcyclin for 2 h at 4 °C. Cell surface-associated fluorescence, as percentage of the sample with […], is shown. Experiments were carried out in duplicate, and the data shown here are representative of three independent experiments. (B) 11 × 10^4 U87-MG cells/sample were pre-treated for 40 min at 37 °C with increasing concentrations of uPAcyclin or the indicated Ala peptides and then assayed in Boyden chambers for 5% FBS-dependent migration for 3 h at 37 °C. At the end of incubation, the filters were processed as described in the Methods section. For clarity here and in the following Figures, Ala-x indicates the peptide with substituted x-position. For both assays, the p-values are in the range of 0.005 ≤ p ≤ 0.001, apart from [Ala1]uPAcyclin in the migration assay with p ≤ 0.05.
Alterations of the amino acid sequence may affect the peptide structure and may, in turn, alter its function. To test for differences in the inhibitory activity of the Ala-substituted peptides, U87-MG glioblastoma cells were subjected to a directional migration assay in Boyden chambers towards FBS, in the presence or in the absence of the indicated concentrations of uPAcyclin or one of its Ala-scan derivatives (Figure 1B).

[3] = molecular target: T1, integrin αV receptors on the GBM cell surface (U87-MG cells) (Homo sapiens, UniProt P06756); experiment: Receptor binding assay: displacement of FITC-uPAcyclin from U87-MG living cells; details: for increase of binding affinity compared to uPAcyclin / binding affinity compared to uPAcyclin (in words): U87-MG cells; for binding affinity compared to uPAcyclin (in words): displacement of FITC-uPAcyclin
T1 construct: endogenous in cells; host or cells: U87-MG human glioblastoma cells (living, acid-treated, 4 °C)
Description: The U87-MG and U251-MG cell lines were harvested and acid-treated, as described. Briefly, 2 × 10^6 cells/sample were pre-incubated for 30 min at 4 °C with uPAcyclin and Ala peptides and subsequently exposed to 50 nM FITC-uPAcyclin for 2 h at 4 °C, as described. The experiments were performed three times, with duplicate samples, and analyzed as reported in the statistical analysis.
This assay confirmed that FITC-uPAcyclin binds specifically to both GBM cell lines and to the HEK-293/αV, whereas little interaction is detected with HEK-293 cells (Supporting Information, Table S7). […] To investigate the ability of novel Ala-scan peptides to compete with uPAcyclin for binding to integrin αV receptors on the GBM cell surface, the specific interaction of FITC-conjugated uPAcyclin with U87-MG living cells was tested via a receptor binding assay. U87-MG GBM cells were pre-incubated with increasing concentrations of unlabeled Ala peptides and then exposed to FITC-uPAcyclin (Figure 1A). […] When considering the relative Kdapp of uPAcyclin variants, it can be inferred that the replacement either of each of the three prolines (Pro^2, Pro^5, Pro^6) or Lys^1 increases the binding affinity of the resulting peptide compared to uPAcyclin. In contrast, the Ala mutation of other residues is detrimental to the peptide binding affinity.
as §1

T1 sequence (P06756 31-889 limits assumed): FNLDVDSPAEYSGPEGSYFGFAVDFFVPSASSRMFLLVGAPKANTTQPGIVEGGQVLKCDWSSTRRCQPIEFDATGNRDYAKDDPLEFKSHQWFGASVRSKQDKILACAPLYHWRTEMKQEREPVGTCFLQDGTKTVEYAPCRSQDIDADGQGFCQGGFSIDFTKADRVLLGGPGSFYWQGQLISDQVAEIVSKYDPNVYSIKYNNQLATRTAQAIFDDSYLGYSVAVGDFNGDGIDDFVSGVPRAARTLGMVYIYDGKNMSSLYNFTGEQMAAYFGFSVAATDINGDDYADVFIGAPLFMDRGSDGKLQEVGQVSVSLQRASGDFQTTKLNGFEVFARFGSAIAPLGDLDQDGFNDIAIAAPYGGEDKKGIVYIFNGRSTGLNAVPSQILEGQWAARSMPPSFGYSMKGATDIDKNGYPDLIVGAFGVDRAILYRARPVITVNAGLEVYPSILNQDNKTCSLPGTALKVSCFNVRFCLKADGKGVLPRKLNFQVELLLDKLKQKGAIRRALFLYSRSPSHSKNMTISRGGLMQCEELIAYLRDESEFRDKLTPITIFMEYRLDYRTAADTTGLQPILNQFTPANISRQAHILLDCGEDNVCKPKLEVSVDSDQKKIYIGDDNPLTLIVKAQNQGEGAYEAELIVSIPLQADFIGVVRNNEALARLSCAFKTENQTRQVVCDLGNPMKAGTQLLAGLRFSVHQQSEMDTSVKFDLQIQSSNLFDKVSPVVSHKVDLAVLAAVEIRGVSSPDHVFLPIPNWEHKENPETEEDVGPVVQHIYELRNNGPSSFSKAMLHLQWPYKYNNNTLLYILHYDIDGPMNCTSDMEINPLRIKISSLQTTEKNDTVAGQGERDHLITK
T1 sequence (P06756 891-1048 limits assumed): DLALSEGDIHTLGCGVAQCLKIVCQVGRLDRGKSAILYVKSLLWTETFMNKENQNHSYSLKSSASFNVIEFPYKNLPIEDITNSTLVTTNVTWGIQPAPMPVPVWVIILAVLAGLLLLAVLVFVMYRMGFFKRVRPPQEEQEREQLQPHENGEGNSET

| SMILES | median overall survival [1] [months] | IC50 of migration lower / inhibitory activity higher than parental uPAcyclin ([2]; U87-MG migration) | inhibitory activity on cell migration, comparison (in words) [2] | increase of binding affinity compared to uPAcyclin [3] | binding affinity compared to uPAcyclin (in words) [3] | improvement in binding compared to parental uPAcyclin ([3]; GBM cells) [fold] |
| --- | --- | --- | --- | --- | --- | --- |
| Cn1nnc2c(C(N)=O)ncn2c1=O [Temozolomide] | 14.6 | – | – | – | – | – |
| CC(=O)N[C@@H](CCCCN)C(=O)N[C@@H](C)C(=O)N[C@H]1CCC(=O)NCCCC[C@@H](C(N)=O)NC(=O)[C@H](CC(C)C)NC(=O)[C@H](CCC(=O)O)NC(=O)[C@H](CCC(=O)O)NC(=O)[C@@H]2CCCN2C(=O)[C@@H]2CCCN2C(=O)[C@H](CO)NC1=O [[Ala^2]uPAcyclin] (Ac-KAESPPEELK-NH2; lactam 3-10) | – | about 10 fold | strong inhibitors | about 1 log | definitely higher than that of the parental uPAcyclin | – |
| CC(=O)N[C@@H](CCCCN)C(=O)N1CCC[C@H]1C(=O)N[C@H]1CCC(=O)NCCCC[C@@H](C(N)=O)NC(=O)[C@H](CC(C)C)NC(=O)[C@H](CCC(=O)O)NC(=O)[C@H](CCC(=O)O)NC(=O)[C@@H]2CCCN2C(=O)[C@H](C)NC(=O)[C@H](CO)NC1=O [[Ala^5]uPAcyclin] (Ac-KPESAPEELK-NH2; lactam 3-10) | – | – | strong inhibitors | about 1 log | definitely higher than that of the parental uPAcyclin | 10 |
